How the values were obtained:
Escherichia coli [1] = assay: Molecular phenotypic antimicrobial susceptibility test (extraction or DNA purification prior to PCR); assay type: cell-based
Protocol: (§1) Detection of Molecular Phenotypic Antimicrobial Susceptibility. Disclosed herein are the methods for the detection of phenotypic antimicrobial susceptibility via molecular methods. The present invention describes how a specimen 100 with a known microbial load is incubated and then exposed to a panel of antimicrobial agents to determine sensitivity (prevention of growth) or resistance (allowance of growth) to the specific antimicrobial agents tested utilizing molecular methods.
(§2) Sample Collection. Specimens 100 are collected from patients using sterile collection processes that are employed in routine clinical care. Specimens are transported to the testing facility in boric acid preservative.
Preparation of the Specimens for Testing. […] The process for pathogen isolation includes steps of harvesting the pathogen (e.g., via centrifugation), isolating pathogen DNA via a DNA isolation and/or purification kit, and performing PCR on the pathogen DNA via PCR components (e.g., primers, enzymes, buffers) as would be known to the skilled artisan. […] This aliquot is used for antimicrobial susceptibility testing if indicated based on the pathogen detection results. […] Specimens 100 with lower pathogen loads could also be utilized in the antibiotic susceptibility phase of testing with or without a longer incubation period.
(§3) Preparation of Antimicrobial Susceptibility Testing Plates. Antimicrobial solutions are prepared at known concentrations. The specific antimicrobials and their concentrations are selected based on the pathogen of interest and the described antimicrobial resistance breakpoints for that specimen pathogen and antimicrobial combination. These antimicrobials have been selected based on those commonly utilized by healthcare providers in routine clinical care for the specific type of suspected infection. The number and types of antimicrobials utilized can be customized based on the infection source, pathogen detected, patient-specific factors such as allergies or other health conditions (e.g., chronic kidney disease or concurrent medication use), or healthcare provider preferences such as antimicrobial availability or cost.
The antimicrobial solutions are prepared in liquid culture media (such as Muller Hinton Broth) to achieve the desired antimicrobial concentration and are then stored at −80° C. until use. For a given specimen, each antimicrobial is tested at a single or multiple antimicrobial concentration(s) which is its established breakpoints for sensitivity. The antimicrobial solutions are prepared and plated out for each specific pathogen. […] This allows for evaluation of pathogen load when no antimicrobial is present.
Specimen Exposure to Antimicrobial Agents. The 1 mL aliquot of the specimen 100 previously mixed with culture media and incubated is obtained. Using optical density measurements as a guide, the specimen 100 is diluted to 0.5 McFarland.
Antimicrobial exposure plates are typically placed into an incubator for 12-16 hours.
Nucleic Acid Amplification of Antimicrobial Agent Exposed Pathogens. The antimicrobial exposure plate is removed after the period of incubation. The specimen then undergoes a purification or lysis step. For example, the specimen may undergo a purification step (e.g., magnetic bead-based or other separation protocol to isolate genetic material). In another example, the specimen may undergo a cell lysis step. For example, buffer (e.g., lysis buffer) may be added and incubated in the thermal cycler for preparation for direct PCR. Next, the specimen may undergo a polymerase chain reaction (PCR) testing protocol, whereby a semi-quantitative PCR method is utilized. This may be completed either with or without a specific extraction protocol step. The pathogens can be individually targeted and detected, or a universal genetic sequence can be utilized to detect the antimicrobial susceptibility of the specimen as a whole.

Escherichia coli [2] = assay: Traditional culture-based antimicrobial susceptibility test; assay type: cell-based
From the text: Table 3 illustrates the results of an example antimicrobial agent susceptibility test of the current application versus a traditional culture-based antimicrobial agent susceptibility test for multiple Escherichia coli isolates, in accordance with one or more embodiments of the disclosure. These specimens underwent extraction or DNA purification prior to PCR. As in Tables 1 and 2, the results of the test of the current application are similar to the results from the traditional test. […]
Table 8 illustrates the results of an example antimicrobial agent susceptibility test of the current application versus a traditional culture-based antimicrobial agent susceptibility test for a low level positive with <10,000 cells/mL in the original specimen. These specimens were tested with direct PCR (e.g., no extraction DNA purification step prior to PCR) after 16 hours of incubation. As in Tables 1, 2, 3, 5, and 7, the results of the test are similar to the traditional test. […]

P. aeruginosa [3] = assay: Molecular phenotypic antimicrobial susceptibility test with direct PCR (no extraction DNA purification step); assay type: cell-based, Pseudomonas aeruginosa
Protocol: as §1
as §2, with “preservative. Specimens 100 are subsequently divided into a first sample 104 and a second sample 108.” for “preservative.”
Preparation of the Specimens for Testing. The specimens 100 are put through a pathogen identification process using PCR technology (e.g., using the first sample 104). The process for pathogen isolation includes steps of harvesting the pathogen (e.g., via centrifugation), isolating pathogen DNA via a DNA isolation and/or purification kit, and performing PCR on the pathogen DNA via PCR components (e.g., primers, enzymes, buffers) as would be known to the skilled artisan. Simultaneously, an additional aliquot of the same specimen (e.g., the second sample 108) is placed with liquid culture media and incubated for 4-6 hours. This aliquot is used for antimicrobial susceptibility testing if indicated based on the pathogen detection results. After pathogen identification is completed and if more than 10,000 cells/mL of bacteria (e.g., eligible bacteria) are detected in the source specimen, the second sample 108 then enters the antimicrobial susceptibility phase of testing. Specimens 100 with lower pathogen loads could also be utilized in the antibiotic susceptibility phase of testing with or without a longer incubation period.
as §3
The antimicrobial solutions are prepared in liquid culture media (such as Muller Hinton Broth) to achieve the desired antimicrobial concentration and are then stored at −80° C. until use. For a given specimen, each antimicrobial is tested at a single or multiple antimicrobial concentration(s) which is its established breakpoints for sensitivity. The antimicrobial solutions are prepared and plated out for each specific pathogen. This allows ease of use on the day of testing after defrosting the plate 112. Table 1, which illustrates the results of molecular phenotypic antimicrobial susceptibility testing when more than one organism is present in the source specimen, provides an example of an antimicrobial plate 112 prepared for this purpose. Of note, control wells containing only culture media are present on all plates 112. This allows for evaluation of pathogen load when no antimicrobial is present.
Specimen Exposure to Antimicrobial Agents. The 1 mL aliquot of the specimen 100 previously mixed with culture media and incubated is obtained. Using optical density measurements as a guide, the specimen 100 is diluted to 0.5 McFarland. […]

P. aeruginosa [4] = assay: Traditional culture-based antimicrobial susceptibility test; assay type: cell-based, Pseudomonas aeruginosa; conditions: P. aeruginosa isolate MRSN1938
Protocol: Table 5 illustrates the results of an example antimicrobial agent susceptibility test of the current application versus a traditional culture-based antimicrobial agent susceptibility test for multiple specimens with different pathogens, in accordance with one or more embodiments of the disclosure. These specimens were tested with direct PCR (e.g., no extraction DNA purification step prior to PCR). As in Tables 1, 2, and 3, the results of the test of the current application are similar to the results from the traditional test.
Result Reporting to Healthcare Providers. The results from the antimicrobial exposure are reported to the ordering healthcare provider. This information can be utilized by the healthcare provider when selecting an antimicrobial regimen for their individual patient based on these individual specimen results and patient specific factors. […] The current standard of care for antimicrobial susceptibility testing involves the growth, isolation, and exposure of pathogens to antimicrobials. This traditional culture and sensitivity process can take multiple days to obtain results, limiting the ability of healthcare providers to receive timely results to make actionable changes in patient care or management. Healthcare providers desire a method to obtain antimicrobial susceptibility results with quicker turn-around-time. This application discloses a molecular-based phenotypic antimicrobial susceptibility method which involves pathogen exposure to a panel of antimicrobial agents at their specified minimum inhibitory concentration breakpoints for sensitivity. This method allows for more timely antimicrobial susceptibility results.

## CC(C)(O/N=C(\C(=O)N[C@@H]1C(=O)N2C(C(=O)[O-])=C(C[n+]3ccccc3)CS[C@H]12)c1csc(N)n1)C(=O)O [Ceftazidime]
Escherichia coli [1]; E. coli isolate 1, Ct at control (average) 21.238
  Ct at Sensitive Breakpoint: 25.605
Escherichia coli [1]; E. coli isolate 1, at sensitive breakpoint
  Molecular Antimicrobial Susceptibility Result: Sensitive (Antimicrobial wells with pathogen load detected below the control wells (typically >2 cycle thresholds later) may be reported as Sensitive)
Escherichia coli [1]; E. coli isolate 2, Ct at control (average) 21.270
  Ct at Sensitive Breakpoint: 22.508
Escherichia coli [1]; E. coli isolate 2, at sensitive breakpoint
  Molecular Antimicrobial Susceptibility Result: Sensitive (Antimicrobial wells with pathogen load detected below the control wells (typically >2 cycle thresholds later) may be reported as Sensitive)
Escherichia coli [1]; E. coli isolate 3, Ct at control (average) 22.0995
  Ct at Sensitive Breakpoint: 22.583
Escherichia coli [1]; E. coli isolate 3, at sensitive breakpoint
  Molecular Antimicrobial Susceptibility Result: Resistant
Escherichia coli [2]; E. coli isolate 1 (Table 3)
  Traditional Culture Result: Sensitive
Escherichia coli [2]; E. coli isolate 2 (Table 3)
  Traditional Culture Result: Sensitive
Escherichia coli [2]; E. coli isolate 3 (Table 3)
  Traditional Culture Result: Sensitive
P. aeruginosa [3]; P. aeruginosa isolate MRSN1938, Ct at control (average) 12.031
  Ct at Sensitive Breakpoint: 24.596
P. aeruginosa [3]; P. aeruginosa isolate MRSN1938, at sensitive breakpoint
  Molecular Antimicrobial Susceptibility Result: Sensitive (Antimicrobial wells with pathogen load detected below the control wells (typically >2 cycle thresholds later) may be reported as Sensitive)
P. aeruginosa [4]
  Traditional Culture Result: Sensitive

Reference: patent US20250290117A1, “MOLECULAR PHENOTYPIC ANTIMICROBIAL SUSCEPTIBILITY TESTING” (priority 2024, published 2025)
